Laboratory results taken from ChEMBL document CHEMBL4145521, “Regioselective synthesis of 3,4-diaryl-5-unsubstituted isoxazoles, analogues of natural cytostatic combretastatin A4” (Eur J Med Chem, 2018).

How the values were obtained:
Type in all cases: functional
NCI-H522 = experiment: Cytotoxicity against human NCI-H522 cells assessed as cell growth at 0.01 uM incubated for 48 hrs by sulforhodamine B assay relative to control; conditions: NCI-H522, 48 h, read-out: Activity
SK-MEL-28 = experiment: Cytotoxicity against human SK-MEL-28 cells incubated for 48 hrs by sulforhodamine B assay; conditions: SK-MEL-28, 48 h
PC-3 = experiment: Cytotoxicity against human PC3 cells incubated for 48 hrs by sulforhodamine B assay; conditions: PC-3, 48 h
CCRF-CEM [1] = experiment: Cytotoxicity against human CCRF-CEM cells incubated for 48 hrs by sulforhodamine B assay
HT-29 = experiment: Cytotoxicity against human HT-29 cells incubated for 48 hrs by sulforhodamine B assay; conditions: HT-29, 48 h
TK-10 = experiment: Cytotoxicity against human TK10 cells assessed as cell growth at 10 uM incubated for 48 hrs by sulforhodamine B assay relative to control; conditions: TK-10, 48 h, read-out: Activity
LOX IMVI [2] = experiment: Cytotoxicity against human LOXIMVI cells assessed as cell growth at 0.1 uM incubated for 48 hrs by sulforhodamine B assay relative to control; conditions: read-out: Activity
HCC 2998 = experiment: Cytotoxicity against human HCC2998 cells assessed as cell growth at 1 uM incubated for 48 hrs by sulforhodamine B assay relative to control; conditions: HCC 2998, 48 h, read-out: Activity
OVCAR-3 [3] = experiment: Cytotoxicity against human OVCAR3 cells assessed as cell growth at 10 uM incubated for 48 hrs by sulforhodamine B assay relative to control; conditions: OVCAR-3, 48 h, read-out: Activity
SW-620 [4] = experiment: Cytotoxicity against human SW620 cells assessed as cell growth at 10 uM incubated for 48 hrs by sulforhodamine B assay relative to control; conditions: SW-620, 48 h, read-out: Activity
SN12C = experiment: Cytotoxicity against human SN12C cells assessed as cell growth at 0.01 uM incubated for 48 hrs by sulforhodamine B assay relative to control; conditions: read-out: Activity
EKVX [5] = experiment: Cytotoxicity against human EKVX cells assessed as cell growth at 0.01 uM incubated for 48 hrs by sulforhodamine B assay relative to control; conditions: read-out: Activity
T47D [6] = experiment: Cytotoxicity against human T47D cells assessed as cell growth at 0.01 uM incubated for 48 hrs by sulforhodamine B assay relative to control; conditions: read-out: Activity
MDA-MB-468 = experiment: Cytotoxicity against human MDA-MB-468 cells assessed as cell growth at 1 uM incubated for 48 hrs by sulforhodamine B assay relative to control; conditions: MDA-MB-468, 48 h, read-out: Activity
OVCAR-4 [7] = experiment: Cytotoxicity against human OVCAR4 cells assessed as cell growth at 100 uM incubated for 48 hrs by sulforhodamine B assay relative to control; conditions: OVCAR-4, 48 h, read-out: Activity
786-0 [8] = experiment: Cytotoxicity against human 786-0 cells assessed as cell growth at 10 uM incubated for 48 hrs by sulforhodamine B assay relative to control; conditions: 786-0, 48 h, read-out: Activity
MDA-MB-435 = experiment: Cytotoxicity against human MDA-MB-435 cells assessed as cell growth at 0.01 uM incubated for 48 hrs by sulforhodamine B assay relative to control; conditions: MDA-MB-435, 48 h, read-out: Activity
NCI-H226 = experiment: Cytotoxicity against human NCI-H226 cells assessed as cell growth at 1 uM incubated for 48 hrs by sulforhodamine B assay relative to control; conditions: NCI-H226, 48 h, read-out: Activity
MOLT-4 [9] = experiment: Cytotoxicity against human MOLT4 cells assessed as cell growth at 100 uM incubated for 48 hrs by sulforhodamine B assay relative to control; conditions: MOLT-4, 48 h, read-out: Activity
CCRF-CEM [10] = experiment: Cytotoxicity against human CCRF-CEM cells assessed as cell growth at 0.01 uM incubated for 48 hrs by sulforhodamine B assay relative to control; conditions: read-out: Activity
M14 = experiment: Cytotoxicity against human M14 cells assessed as cell growth at 100 uM incubated for 48 hrs by sulforhodamine B assay relative to control; conditions: M14, 48 h, read-out: Activity
MOLT-4 [11] = experiment: Cytotoxicity against human MOLT4 cells incubated for 48 hrs by sulforhodamine B assay; conditions: MOLT-4, 48 h
786-0 [12] = experiment: Cytotoxicity against human 786-0 cells assessed as cell growth at 1 uM incubated for 48 hrs by sulforhodamine B assay relative to control; conditions: 786-0, 48 h, read-out: Activity
SW-620 [13] = experiment: Cytotoxicity against human SW620 cells assessed as cell growth at 1 uM incubated for 48 hrs by sulforhodamine B assay relative to control; conditions: SW-620, 48 h, read-out: Activity
OVCAR-4 [14] = experiment: Cytotoxicity against human OVCAR4 cells assessed as cell growth at 10 uM incubated for 48 hrs by sulforhodamine B assay relative to control; conditions: OVCAR-4, 48 h, read-out: Activity
A549 = experiment: Cytotoxicity against human A549/ATCC cells incubated for 48 hrs by sulforhodamine B assay; conditions: A549, 48 h
SF-539 = experiment: Cytotoxicity against human SF539 cells assessed as cell growth at 0.1 uM incubated for 48 hrs by sulforhodamine B assay relative to control; conditions: SF-539, 48 h, read-out: Activity
T47D [15] = experiment: Cytotoxicity against human T47D cells assessed as cell growth at 1 uM incubated for 48 hrs by sulforhodamine B assay relative to control; conditions: read-out: Activity
EKVX [16] = experiment: Cytotoxicity against human EKVX cells assessed as cell growth at 0.1 uM incubated for 48 hrs by sulforhodamine B assay relative to control; conditions: read-out: Activity
OVCAR-3 [17] = experiment: Cytotoxicity against human OVCAR3 cells assessed as cell growth at 100 uM incubated for 48 hrs by sulforhodamine B assay relative to control; conditions: OVCAR-3, 48 h, read-out: Activity
COLO 205 = experiment: Cytotoxicity against human COLO205 cells assessed as cell growth at 0.1 uM incubated for 48 hrs by sulforhodamine B assay relative to control; conditions: COLO 205, 48 h, read-out: Activity
LOX IMVI [18] = experiment: Cytotoxicity against human LOXIMVI cells assessed as cell growth at 100 uM incubated for 48 hrs by sulforhodamine B assay relative to control; conditions: read-out: Activity
[19] = read-out: LC50 (the source's name)
[20] = read-out: pLC50 (the source's name) (converted)

Q: How did the growth at 0.01 µM (NCI-H522) turn out when `COc1ccc(-c2nocc2-c2cc(OC)c(OC)c(OC)c2)cc1` was run?
A: 84%

Q: And the GI50 (SK-MEL-28; read-out: GI50)?
A: 4.96 µM

Q: And the CC50 (SK-MEL-28; [19])?
A: > 100 µM

Q: And the TGI (SK-MEL-28; read-out: TGI)?
A: 80.8 µM

Q: And the GI50 (SK-MEL-28; read-out: pGI50 (converted))?
A: 5.01 µM

Q: And the CC50 (SK-MEL-28; [20])?
A: > 100 µM

Q: And the TGI (SK-MEL-28; read-out: pTGI (converted))?
A: 81.3 µM

Q: What about the GI50 (PC-3; read-out: GI50) of the same molecule?
A: 0.0671 µM

Q: What about the LC50 (concentration killing 50% of cells) (PC-3; read-out: LC50) of the same molecule?
A: > 100 µM

Q: What about the TGI (PC-3; read-out: TGI) of the same molecule?
A: 42.5 µM

Q: And the GI50 (PC-3; read-out: pGI50 (converted))?
A: 0.0676 µM

Q: And the LC50 (concentration killing 50% of cells) (PC-3; read-out: pLC50 (converted))?
A: > 100 µM

Q: What about the TGI (PC-3; read-out: pTGI (converted)) of the same molecule?
A: 42.7 µM

Q: What about the GI50 (CCRF-CEM [1]; read-out: GI50) of the same molecule?
A: 0.404 µM

Q: What about the LC50 (CCRF-CEM [1]; read-out: LC50) of the same molecule?
A: > 100 µM

Q: What about the TGI (CCRF-CEM [1]; read-out: TGI) of the same molecule?
A: > 100 µM

Q: And the GI50 (CCRF-CEM [1]; read-out: pGI50 (converted))?
A: 0.407 µM

Q: And the LC50 (CCRF-CEM [1]; read-out: pLC50 (converted))?
A: > 100 µM

Q: And the TGI (CCRF-CEM [1]; read-out: pTGI)?
A: > 100 µM

Q: What about the GI50 (HT-29; read-out: GI50) of the same molecule?
A: 0.0365 µM

Q: What about the LC50 (HT-29; read-out: LC50) of the same molecule?
A: > 100 µM

Q: And the TGI (HT-29; read-out: TGI)?
A: 12 µM

Q: What about the GI50 (HT-29; read-out: pGI50 (converted)) of the same molecule?
A: 0.0363 µM

Q: And the LC50 (HT-29; read-out: pLC50 (converted))?
A: > 100 µM

Q: What about the TGI (HT-29; read-out: pTGI (converted)) of the same molecule?
A: 12 µM

Q: And the growth at 10 µM (TK-10)?
A: 18%

Q: What about the growth at 0.1 µM (LOX IMVI [2]) of the same molecule?
A: 55%

Q: What about the growth at 1 µM (HCC 2998) of the same molecule?
A: 40%

Q: And the growth at 10 µM (OVCAR-3 [3])?
A: -9%

Q: And the growth at 10 µM (SW-620 [4])?
A: 19%

Q: What about the growth at 0.01 µM (SN12C) of the same molecule?
A: 107%

Q: What about the growth at 0.01 µM (EKVX [5]) of the same molecule?
A: 83%

Q: What about the growth at 0.01 µM (T47D [6]) of the same molecule?
A: 81%

Q: And the growth at 1 µM (MDA-MB-468)?
A: 3%

Q: And the growth at 100 µM (OVCAR-4 [7])?
A: 15%

Q: And the growth at 10 µM (786-0 [8])?
A: 24%

Q: What about the growth at 0.01 µM (MDA-MB-435) of the same molecule?
A: 79%

Q: What about the growth at 1 µM (NCI-H226) of the same molecule?
A: 75%

Q: What about the growth at 100 µM (MOLT-4 [9]) of the same molecule?
A: 5%

Q: What about the growth at 0.01 µM (CCRF-CEM [10]) of the same molecule?
A: 111%

Q: And the growth at 100 µM (M14)?
A: -5%

Q: What about the GI50 (MOLT-4 [11]; read-out: GI50) of the same molecule?
A: 0.708 µM

Q: And the CC50 (MOLT-4 [11]; [19])?
A: > 100 µM

Q: What about the TGI (MOLT-4 [11]; read-out: TGI) of the same molecule?
A: > 100 µM

Q: And the GI50 (MOLT-4 [11]; read-out: pGI50 (converted))?
A: 0.708 µM

Q: What about the CC50 (MOLT-4 [11]; [20]) of the same molecule?
A: > 100 µM

Q: And the TGI (MOLT-4 [11]; read-out: pTGI)?
A: > 100 µM

Q: And the growth at 1 µM (786-0 [12])?
A: 37%

Q: What about the growth at 1 µM (SW-620 [13]) of the same molecule?
A: 21%

Q: What about the growth at 10 µM (OVCAR-4 [14]) of the same molecule?
A: 32%

Q: What about the GI50 (A549; read-out: GI50) of the same molecule?
A: 0.0869 µM

Q: What about the LC50 (A549; read-out: LC50) of the same molecule?
A: > 100 µM

Q: What about the TGI (A549; read-out: TGI) of the same molecule?
A: > 100 µM

Q: And the GI50 (A549; read-out: pGI50 (converted))?
A: 0.0871 µM

Q: And the LC50 (A549; read-out: pLC50 (converted))?
A: > 100 µM

Q: What about the TGI (A549; read-out: pTGI) of the same molecule?
A: > 100 µM

Q: What about the growth at 0.1 µM (SF-539) of the same molecule?
A: 65%

Q: What about the growth at 1 µM (T47D [15]) of the same molecule?
A: 37%

Q: And the growth at 0.1 µM (EKVX [16])?
A: 49%

Q: And the growth at 100 µM (OVCAR-3 [17])?
A: -21%

Q: What about the growth at 0.1 µM (COLO 205) of the same molecule?
A: 37%

Q: What about the growth at 100 µM (LOX IMVI [18]) of the same molecule?
A: -7%
